Results reported in BindingDB's records for doi:10.1016/j.ejmech.2021.113336 (Zhejiang University, 2021).

Assay: Inhibition of P-glycoprotein in human MCF7/ADR cells assessed as reversal fold by measuring reduction in doxorubicin IC50 at 5 uM incubated for 48 hrs by CCK-8 assay

COc1ccc(-c2ccc(C(=O)N3CCc4cc(OC)c(OC)cc4C3)o2)c(OC)c1
IC50: 18.3 µM

CCOc1ccc(-c2ccc(C(=O)N3CCc4cc(OC)c(OC)cc4C3)o2)cc1
IC50: 15.4 µM

COc1ccc(OC)c(-c2ccc(C(=O)N3CCc4cc(OC)c(OC)cc4C3)o2)c1
IC50: 18.8 µM

COc1cc(OC)cc(-c2ccc(C(=O)N3CCc4cc(OC)c(OC)cc4C3)o2)c1
IC50: 19.8 µM

CCCCOc1ccc(-c2ccc(C(=O)N3CCc4cc(OC)c(OC)cc4C3)o2)cc1
IC50: 62.7 µM

COc1cc2c(cc1OC)CN(C(=O)c1ccc(-c3ccc(OC(C)C)cc3)o1)CC2
IC50: 69.6 µM

COc1cc2c(cc1OC)CN(C(=O)c1ccc(-c3ccccc3OC)o1)CC2
IC50: 13.5 µM

COc1cc2c(cc1OC)CN(C(=O)c1ccc(-c3ccc(OC(F)(F)F)cc3)o1)CC2
IC50: 11.7 µM

COc1cc2c(cc1OC)CN(C(=O)c1ccc(-c3ccc(OCC(C)C)cc3)o1)CC2
IC50: 50.9 µM

COc1cc2c(cc1OC)CN(C(=O)c1ccc(-c3ccc(OC(C)(C)C)cc3)o1)CC2
IC50: 62.7 µM

COc1cc2c(cc1OC)CN(C(=O)c1ccc(-c3cc(OC)c(OC)c(OC)c3)o1)CC2
IC50: 18.2 µM

COc1cc2c(cc1OC)CN(C(=O)c1ccc(-c3ccc(SC(C)C)cc3)o1)CC2
IC50: 64.4 µM

COc1ccc(-c2ccc(C(=O)N3CCc4cc(OC)c(OC)cc4C3)o2)cc1OC
IC50: 9.7 µM

COc1cc2c(cc1OC)CN(C(=O)c1ccc(-c3ccc(Oc4ccccc4)cc3)o1)CC2
IC50: 42 µM

COc1ccc(-c2ccc(C(=O)N3CCc4cc(OC)c(OC)cc4C3)o2)cc1
IC50: 9.1 µM

COc1cc2c(cc1OC)CN(C(=O)c1ccc(-c3ccc4c(c3)OCO4)o1)CC2
IC50: 8.4 µM

COc1cccc(-c2ccc(C(=O)N3CCc4cc(OC)c(OC)cc4C3)o2)c1
IC50: 6.7 µM

COc1cc2c(cc1OC)CN(C(=O)c1ccc(-c3cccc(OC)c3OC)o1)CC2
IC50: 15.1 µM

CCCOc1ccc(-c2ccc(C(=O)N3CCc4cc(OC)c(OC)cc4C3)o2)cc1
IC50: 44.6 µM
